We go through one compound from patent publication US12453708B2, “Aminonaphthoquinone compounds for treatment and/or prevention of fibrosis diseases” (CALGENT BIOTECHNOLOGY CO., LTD., priority 2015, dated 2025).

The test system of assay [1] is TGF-β-induced collagen expression in WI-38 cells. As to the kind of experiment: TGF-β-induced collagen expression in WI-38 cells (Western blot, immunofluorescence). It counts as cell-based, human. To be noted: WI-38 lung fibroblasts, 0.3, 1, 3 or 10 μM, TGF-β (10 ng/mL). As for the experimental part:
(§1) FIGS. 4 (A), (B) and (C) show the effect of L056 on TGF-β-induced collagen expression in WI-38 cells. WI-38 lung fibroblasts were incubated with different concentrations of L056 (0.3, 1, 3 or 10 μM) for 30 min before and during incubation for 2 h with TGF-β (10 ng/mL). […] (A), Western blot plot; (B), Quantitative assay of Western blot; (C), Immunofluorescence plot. WI-38 cells, a normal human embryonic lung fibroblast cell line, were obtained from American Type Culture Collection (Manassas, VA). Cells were grown in MEM nutrient mixture, containing 10% FCS, 2 mM L-glutamine, 0.1 mM NEAA, 1 mM sodium pyruvate, 50 U/ml penicillin G, and 100 µg/ml streptomycin, in a humidified 37° C. incubator with 5% CO2 Cells were used between passages 18 and 30 for all experiments. After reaching confluence, cells were seeded onto 6-cm dishes for immunoblotting. Western blot analyses were performed as described previously (Chen B C, Chang Y S, Kang J C, Hsu M J, Sheu J R, Chen T L, et al. Peptidoglycan induces nuclear factor-kappaB activation and cyclooxygenase-2 expression via Ras, Raf-1, and ERK in RAW 264.7 macrophages. J Biol Chem 2004; 279:20889-97). […] The immunoreactivity was detected using enhanced chemiluminescence (ECL) following the manufacturer's instructions. Quantitative data were obtained using a computing densitometer with scientific imaging systems (Kodak, Rochester, NY). […]
Background: A western blot detects proteins with antibodies after separation by electrophoresis.

For assay [2], the system named is TGF-β-induced α-SMA expression in WI-38 cells. As to the kind of experiment: TGF-β-induced α-SMA expression in WI-38 cells (Western blot). It counts as cell-based, human. To be noted: WI-38 lung fibroblasts, 0.3, 1, 3 or 10 μM for 30 min before and during incubation with TGF-β (10 ng/mL). As to the method:
as §1, with “5 (A) and” for “4 (A),”, “(B)” for “(B) and (C)”, “α-SMA” for “collagen”, “blot” for “blot; (C), Immunofluorescence plot.”

For the compound `O=C(Nc1ccncc1)c1ccc(CNC2=C(Cl)C(=O)c3ccccc3C2=O)cc1` [Example L056, 4-(((3-chloro-1,4-dioxo-1,4-dihydronaphthalen-2-yl)amino)methyl)-N-(pyridin-4-yl)benzamide], the TGF-β-induced collagen production/expression entry is reported as “significantly inhibited” in assay [1] and “inhibited” in assay [1] (listed as MPTOL056). In assay [2], the “TGF-β-induced α-SMA expression” value is on record as “significantly inhibited”.
